# Reference: paper PMC3527430, “Total Synthesis of Septocylindrin B and C-Terminus Modified Analogues” (PLoS ONE, 2012)
# Where two headings read alike, the source gives them in different places. Square brackets hold non-standard residues; d marks the D form. Peptide text beside a SMILES is read from it. * marks the point of attachment. X2 = CCCCCCNC[C@H](Cc1ccccc1)N*; X3 = OCCCCCNC[C@H](Cc1ccccc1)N*; X1 = OCCNC[C@H](Cc1ccccc1)N*; Aib = CC(C)(N)C(=O)O
# Legend:
# [1] = system: Bacillus subtilis; format: cell-based
# Protocol: (§1) All these peptides were tested for their antibacterial activity using standard minimal inhibitory concentration (MIC) assays exactly as described in Mattheus et al. […] They are identical except for the glutamine residues, which are replaced with methyl protected glutamic acid residues in ABCD-Phaol. Although ABCD-Phaol should be a functionally reliable model of its natural counterpart, the difference in activity can only be explained by the different interaction with the membrane of the amino acid residue side chains. The amide interaction positively influences activity, so the conversion of Glu(OMe) to Gln improves the activity.
# [2] = system: Staphylococcus aureus; format: cell-based
# Protocol: as §1
# [3] = system: Enterococcus faecalis; format: cell-based
# Protocol: as §1
# [4] = system: Bacillus cereus; format: cell-based
# Protocol: as §1
# [5] = system: Staphylococcus aureus; details: natural Septocylindrin B; ref [1]; cited from earlier work
# Text: Table 1 Antibacterial activity (MIC, µM) of Septocylindrin B and selected analogues. ^a | column: Staphylococcus aureus
# [6] = system: Bacillus cereus, Bacillus subtilis, Enterococcus faecalis, Staphylococcus aureus; assay: Antibacterial activity, MIC assays, overall statement on the bacteria tested; format: cell-based; details: standard MIC assays; four bacteria tested
# Protocol: as §1
# [7] = standard MIC assay as described in Mattheus et al. [13]
# [8] = standard MIC assay as described in Mattheus et al. [13], cell holds only footnote mark d
Compound,Antibacterial activity (MIC) Bacillus subtilis [1],Antibacterial activity (MIC) Staphylococcus aureus [2],Antibacterial activity (MIC) Enterococcus faecalis [3],Antibacterial activity (MIC) Bacillus cereus [4],"Antibacterial activity (MIC) Bacillus subtilis [1, 7]","Antibacterial activity (MIC) Staphylococcus aureus [2, 8]","Antibacterial activity (MIC) Enterococcus faecalis [3, 7]","Antibacterial activity (MIC) Bacillus cereus [4, 7]",Antibacterial activity (MIC) Staphylococcus aureus [5],"Antibacterial activity, result in words [6]"
COC(=O)CC[C@H](NC(=O)[C@H](C)NC(=O)C(C)(C)NC(=O)[C@H](C)NC(=O)C(C)(C)NC(=O)[C@@H]1CCCN1C(=O)C(C)(C)NC(C)=O)C(=O)NC(C)(C)C(=O)N[C@H](C(=O)NC(C)(C)C(=O)NCC(=O)N[C@@H](CC(C)C)C(=O)NC(C)(C)C(=O)N1CCC[C@H]1C(=O)N[C@H](C(=O)NC(C)(C)C(=O)NC(C)(C)C(=O)N[C@@H](CCC(=O)OC)C(=O)N[C@@H](CCC(=O)OC)C(=O)N[C@H](CNCCO)Cc1ccccc1)C(C)C)C(C)C [ABCD-Phaol] (Ac-[Aib]P[Aib]A[Aib]AE(OMe)[Aib]V[Aib]GL[Aib]PV[Aib][Aib]E(OMe)E(OMe)-X1),>50 µM,>50 µM,6 µM,>50 µM,–,–,–,–,–,–
Ac-Aib1-Pro2-Aib3-Ala4-Aib5-Ala6-Glu(OMe)7-Aib8-Val9-Aib10-Gly11-Leu12-Aib13-Pro14-Val15-Aib16-Aib17-Glu(OMe)18-Glu(OMe)19- Phe20-ethanolamine [ABCD-Phe-ethanolamine],–,–,–,–,>100 µM,"^d (A reduced growth is clearly visible, but no MIC end point ≤100 µM)",6 µM,100 µM,–,–
"CCCCCCNC[C@H](Cc1ccccc1)NC(=O)[C@H](CCC(=O)OC)NC(=O)[C@H](CCC(=O)OC)NC(=O)C(C)(C)NC(=O)C(C)(C)NC(=O)[C@@H](NC(=O)[C@@H]1CCCN1C(=O)C(C)(C)NC(=O)[C@H](CC(C)C)NC(=O)CNC(=O)C(C)(C)NC(=O)[C@@H](NC(=O)C(C)(C)NC(=O)[C@H](CCC(=O)OC)NC(=O)[C@H](C)NC(=O)C(C)(C)NC(=O)[C@H](C)NC(=O)C(C)(C)NC(=O)[C@@H]1CCCN1C(=O)C(C)(C)NC(C)=O)C(C)C)C(C)C [ABCD-Phaol-N6, Ac-Aib1-Pro2-Aib3-Ala4-Aib5-Ala6-Glu(OMe)7-Aib8-Val9-Aib10-Gly11-Leu12-Aib13-Pro14-Val15-Aib16-Aib17-Glu(OMe)18-Glu(OMe)19-Phaol20-N6] (Ac-[Aib]P[Aib]A[Aib]AE(OMe)[Aib]V[Aib]GL[Aib]PV[Aib][Aib]E(OMe)E(OMe)-X2)",>100 µM,>100 µM,25 µM,>100 µM,–,–,–,–,–,–
CC(=O)NC(C)(C)C(=O)N1CCC[C@H]1C(=O)NC(C)(C)C(=O)N[C@@H](C)C(=O)NC(C)(C)C(=O)N[C@@H](C)C(=O)N[C@@H](CCC(N)=O)C(=O)NC(C)(C)C(=O)N[C@H](C(=O)NC(C)(C)C(=O)NCC(=O)N[C@@H](CC(C)C)C(=O)NC(C)(C)C(=O)N1CCC[C@H]1C(=O)N[C@H](C(=O)NC(C)(C)C(=O)NC(C)(C)C(=O)N[C@@H](CCC(N)=O)C(=O)N[C@@H](CCC(N)=O)C(=O)N[C@H](CNCCO)Cc1ccccc1)C(C)C)C(C)C [Septocylindrin B synthetic] (Ac-[Aib]P[Aib]A[Aib]AQ[Aib]V[Aib]GL[Aib]PV[Aib][Aib]QQ-X1),12.5 µM,12.5 µM,6.25 µM,6.25 µM,–,–,–,–,8 µM,activity against all four bacteria tested
"COC(=O)CC[C@H](NC(=O)[C@H](C)NC(=O)C(C)(C)NC(=O)[C@H](C)NC(=O)C(C)(C)NC(=O)[C@@H]1CCCN1C(=O)C(C)(C)NC(C)=O)C(=O)NC(C)(C)C(=O)N[C@H](C(=O)NC(C)(C)C(=O)NCC(=O)N[C@@H](CC(C)C)C(=O)NC(C)(C)C(=O)N1CCC[C@H]1C(=O)N[C@H](C(=O)NC(C)(C)C(=O)NC(C)(C)C(=O)N[C@@H](CCC(=O)OC)C(=O)N[C@@H](CCC(=O)OC)C(=O)N[C@H](CNCCCCCO)Cc1ccccc1)C(C)C)C(C)C [ABCD-Phaol-N5O, Ac-Aib1-Pro2-Aib3-Ala4-Aib5-Ala6-Glu(OMe)7-Aib8-Val9-Aib10-Gly11-Leu12-Aib13-Pro14-Val15-Aib16-Aib17-Glu(OMe)18-Glu(OMe)19-Phaol20-N5O] (Ac-[Aib]P[Aib]A[Aib]AE(OMe)[Aib]V[Aib]GL[Aib]PV[Aib][Aib]E(OMe)E(OMe)-X3)",>100 µM,–,1.5 µM,50 µM,–,"^d (A reduced growth is clearly visible, but no MIC end point ≤100 µM)",–,–,–,–
